In US20250163057A1, “DCN-1 MODULATING COMPOUNDS AND METHODS OF USE THEREOF” (Cellarity, Inc., priority 2023, published 2025):
Where two headings read alike, the source gives them in different places.

Target: DCN1 (DCUND1) protein PONY domain (Homo sapiens (Human), UniProt Q96GG9)
Assay: TR-FRET assay, DCN1 binding with FAM-labeled probe
Method: A TR-FRET assay was performed to evaluate the ability of the compounds to bind the DCN-1 protein.
The TR-FRET assay was designed following the Scott et al. protocol (Scott et al., Nat Chem Biol. 2017 August; 13(8): 850-857. Doi:10.1038/nchembio.2386). The recombinant form of the DCN1 (DCUND1) protein PONY domain was produced using an E. coli expression system at Viva Biotech (China). The DCN1 protein was biotinylated (EZ sulfo-NHS-LC-biotin; Thermofisher) for labeling with streptavidin terbium (Tb) cryptate in the reaction. The probe was changed to a non-covalent DCN1 inhibitor labeled with carboxyfluorescein (FAM; Zhou et al., Nat Commun. 2017; 8: 1150. Doi: 10.1038/s41467-017-01243-7). Buffer conditions were modified to enhance protein stability by exchanging Tween20 for TritonX and increasing NaCl to 200 mM. The compounds were screened against 5 nM DCN1 and 20 nM FAM-probe or 0.31 nM DCN1 and 900 nM total probe (100 nM FAM-labeled plus 800 nM unlabeled). The TR-FRET ratio between Tb-DCN1 and the FAM-labeled probe was measured in a 384-well opti-plate (Perkin Elmer) using a plate reader (BMG) at 1, 5, and 24 hrs after treatment with compound (final DMSO concentration of 0.1%).

[1] = 24 hr after treatment with compound, read-out: TR FRET IC50 24 hr
[2] = TR FRET IC50 1 hr (nM), 1 hr after treatment with compound

DCN1 (DCUND1) protein PONY domain, sequence (Q96GG9 60-248): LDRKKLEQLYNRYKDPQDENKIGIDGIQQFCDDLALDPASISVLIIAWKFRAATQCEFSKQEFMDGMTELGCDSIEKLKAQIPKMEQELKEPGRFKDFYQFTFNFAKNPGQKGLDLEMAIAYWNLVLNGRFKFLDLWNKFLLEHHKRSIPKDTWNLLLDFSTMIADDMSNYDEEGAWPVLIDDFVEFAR

Row | SMILES | IC50 [1] [nM] | IC50 [2] [nM] | IC50 (read-out: TR FRET IC50 1 hr, 1 hr after treatment with compound) [nM]
1 | CCN1C(=O)[C@@H](NC(=O)c2cccc(C(F)(F)F)c2)[C@@H](c2ccc(F)cc2)c2c(C/C=C/C(=O)NCCCO)nn(-c3ccccc3)c21 (racemic) [Compound I-24] | 1000 to 3000 | 1000 to 3000 | –
2 | CCN1C(=O)[C@@H](NC(=O)c2cccc(C(F)(F)F)c2)[C@@H](c2ccc(F)cc2)c2c(CNC(=O)C3=CCCN(C)C3)nn(-c3ccccc3)c21 (racemic) [Compound I-28] | ≤ 200 | 200 to 1000 | –
3 | CCN1C(=O)[C@@H](NC(=O)c2cccc(C(F)(F)F)c2)[C@@H](c2ccc(F)cc2)c2c(C(=O)NC(C)(C)C#N)nn(-c3ccccc3)c21 (racemic) [Compound I-31, rac-(4R,5R)—N-(2-cyanopropan-2-yl)-7-ethyl-4-(4-fluorophenyl)-6-oxo-1-phenyl-5-(3-(trifluoromethyl)benzamido)-4,5,6,7-tetrahydro-1H-pyrazolo[3,4-b]pyridine-3-carboxamide] | 1000 to 3000 | 1000 to 3000 | –
4 | CCN1C(=O)[C@@H](NC(=O)c2cccc(C(F)(F)F)c2)[C@@H](c2ccc(F)cc2)c2c(C/C=C/C(=O)NCCO)nn(-c3ccccc3)c21 (racemic) [Compound I-36] | 1000 to 3000 | 1000 to 3000 | –
5 | CCN1C(=O)[C@@H](NC(=O)c2cccc(C(F)(F)F)c2)[C@@H](c2ccc(F)cc2)c2c(/C=C3\CCC(=O)N3)nn(-c3ccccc3)c21 (racemic) [Compound I-39, rac-N-((4R,5R)-7-ethyl-4-(4-fluorophenyl)-6-oxo-3-((E)-(5-oxopyrrolidin-2-ylidene)methyl)-1-phenyl-4,5,6,7-tetrahydro-1H-pyrazolo[3,4-b]pyridin-5-yl)-3-(trifluoromethyl)benzamide] | 1000 to 3000 | 1000 to 3000 | –
6 | CCN1C(=O)[C@@H](NC(=O)c2cccc(C(F)(F)F)c2)[C@@H](c2ccc(F)cc2)c2c(C/C=C/C(=O)N(C)C)nn(-c3ccccc3)c21 (racemic) [Compound I-41] | 1000 to 3000 | 1000 to 3000 | –
7 | CCN1C(=O)[C@@H](NC(=O)c2cccc(C(F)(F)F)c2)[C@@H](c2ccc(F)cc2)c2c(C(C)(C)N(C)C#N)nn(-c3ccccc3)c21 (racemic) [Compound I-42, rac-N-((4R,5R)-7-ethyl-4-(4-fluorophenyl)-3-(2-(N-methylcyanamido)propan-2-yl)-6-oxo-1-phenyl-4,5,6,7-tetrahydro-1H-pyrazolo[3,4-b]pyridin-5-yl)-3-(trifluoromethyl)benzamide] | 1000 to 3000 | 1000 to 3000 | –
8 | CCN1C(=O)[C@@H](NC(=O)c2cccc(C(F)(F)F)c2)[C@@H](c2ccc(F)cc2)c2c(CC/C=C\C(=O)NC)nn(-c3ccccc3)c21 (racemic) [Compound I-43] | 1000 to 3000 | 200 to 1000 | –
9 | CCN1C(=O)[C@@H](NC(=O)c2cccc(C(F)(F)F)c2)[C@@H](c2ccc(F)cc2)c2c(CNC(=O)/C=C/C(=O)OC(C)(C)C)nn(-c3ccccc3)c21 (racemic) [Compound I-45, tert-butyl I-4-((((4S,5S)-7-ethyl-4-(4-fluorophenyl)-6-oxo-1-phenyl-5-(3-(trifluoromethyl)benzamido)-4,5,6,7-tetrahydro-1H-pyrazolo[3,4-b]pyridine-3-yl)methyl)amino)-4-oxobut-2-enoate] | ≤ 200 | 1000 to 3000 | –
10 | CCN1C(=O)[C@@H](NC(=O)c2cccc(C(F)(F)F)c2)[C@@H](c2ccc(F)cc2)c2c(C/C=C/C(N)=O)nn(-c3ccccc3)c21 (racemic) [Compound I-46, rac-N-((4R,5R)-3-((E)-4-amino-4-oxobut-2-en-1-yl)-7-ethyl-4-(4-fluorophenyl)-6-oxo-1-phenyl-4,5,6,7-tetrahydro-1H-pyrazolo[3,4-b]pyridin-5-yl)-3-(trifluoromethyl)benzamide] | 1000 to 3000 | 1000 to 3000 | –
11 | CCN1C(=O)[C@@H](NC(=O)c2cccc(C(F)(F)F)c2)[C@@H](c2ccc(F)cc2)c2c(CC/C=C/C(=O)N(C)C)nn(-c3ccccc3)c21 (racemic) [Compound I-48] | ≤ 200 | – | ≤ 200
12 | CCN1C(=O)[C@@H](NC(=O)c2cccc(C(F)(F)F)c2)[C@@H](c2ccc(F)cc2)c2c(C3(N(C)C#N)CC3)nn(-c3ccccc3)c21 (racemic) [Compound I-52] | 1000 to 3000 | 1000 to 3000 | –
13 | C=C(C)S(=O)(=O)NCc1nn(-c2ccccc2)c2c1[C@H](c1ccc(F)cc1)[C@H](NC(=O)c1cccc(C(F)(F)F)c1)C(=O)N2CC (racemic) [Compound I-54, rac-N-((4R,5R)-7-ethyl-4-(4-fluorophenyl)-3-(((1-methylvinyl)sulfonamido)methyl)-6-oxo-1-phenyl-4,5,6,7-tetrahydro-1H-pyrazolo[3,4-b]pyridin-5-yl)-3-(trifluoromethyl)benzamide] | 200 to 1000 | 200 to 1000 | –
14 | CCN1C(=O)[C@@H](NC(=O)c2cccc(C(F)(F)F)c2)[C@@H](c2ccc(F)cc2)c2c(CNC(=O)/C=C/C(=O)O)nn(-c3ccccc3)c21 (racemic) [Compound I-59, rac-I-4-((((4R,5R)-7-ethyl-4-(4-fluorophenyl)-6-oxo-1-phenyl-5-(3-(trifluoromethyl)benzamido)-4,5,6,7-tetrahydro-1H-pyrazolo[3,4-b]pyridine-3-yl)methyl)amino)-4-oxobut-2-enoic acid] | 1000 to 3000 | 1000 to 3000 | –
15 | CCN1C(=O)[C@@H](NC(=O)c2cccc(C(F)(F)F)c2)[C@@H](c2ccc(F)cc2)c2c(CN(C#N)CCF)nn(-c3ccccc3)c21 (racemic) [Compound I-61] | 200 to 1000 | 200 to 1000 | –
16 | CCN1C(=O)[C@@H](NC(=O)c2cccc(C(F)(F)F)c2)[C@@H](c2ccc(F)cc2)c2c(NC(=O)C(C)(C)C#N)nn(-c3ccccc3)c21 (racemic) [Compound I-63] | 200 to 1000 | – | –
17 | CCN1C(=O)[C@@H](NC(=O)c2cccc(C(F)(F)F)c2)[C@@H](c2ccc(F)cc2)c2c(CNC(=O)/C=C/C(N)=O)nn(-c3ccccc3)c21 (racemic) [Compound I-64, rac-N1-(((4R,5R)-7-ethyl-4-(4-fluorophenyl)-6-oxo-1-phenyl-5-(3-(trifluoromethyl)benzamido)-4,5,6,7-tetrahydro-1H-pyrazolo[3,4-b]pyridine-3-yl)methyl)fumaramide] | 200 to 1000 | 1000 to 3000 | –
18 | CCN1C(=O)[C@@H](NC(=O)c2cccc(C(F)(F)F)c2)[C@@H](c2ccc(F)cc2)c2c(CNC(=O)C#CCN3CCOCC3)nn(-c3ccccc3)c21 (racemic) [Compound I-68, ˜{N}—[˜{rac}-(4˜{S},5˜{S})-7-ethyl-4-(4-fluorophenyl)-3-[(4-morpholinobut-2-ynoylamino)methyl]-6-oxo-1-phenyl-4,5-dihydropyrazolo[3,4-b]pyridine-5-yl]-3-(trifluoromethyl)benzamide] | 200 to 1000 | 200 to 1000 | –
19 | CCN1C(=O)[C@@H](NC(=O)c2cccc(C(F)(F)F)c2)[C@@H](c2ccc(F)cc2)c2c(CC/C=C\C(=O)N(C)C)nn(-c3ccccc3)c21 (racemic) [Compound I-69] | 200 to 1000 | 200 to 1000 | –
20 | CCN1C(=O)[C@@H](NC(=O)c2cccc(C(F)(F)F)c2)[C@@H](c2ccc(F)cc2)c2c(/C=C3/CCC(=O)N3)nn(-c3ccccc3)c21 (racemic) [Compound I-70, rac-N-((4R,5R)-7-ethyl-4-(4-fluorophenyl)-6-oxo-3-((Z)-(5-oxopyrrolidin-2-ylidene)methyl)-1-phenyl-4,5,6,7-tetrahydro-1H-pyrazolo[3,4-b]pyridin-5-yl)-3-(trifluoromethyl)benzamide] | 1000 to 3000 | 1000 to 3000 | –
21 | CCN1C(=O)[C@@H](NC(=O)c2cccc(C(F)(F)F)c2)[C@H](c2ccc(F)cc2)c2c(CNC(=O)C3=C(C(=O)OC)CCC3)nn(-c3ccccc3)c21 (racemic) [Compound I-71] | 200 to 1000 | 200 to 1000 | –
22 | C=C(Cc1nn(-c2ccccc2)c2c1[C@H](c1ccc(F)cc1)[C@H](NC(=O)c1cccc(C(F)(F)F)c1)C(=O)N2CC)C(=O)OC(C)(C)C (racemic) [Compound I-78, rac-tert-butyl 2-(((4R,5R)-7-ethyl-4-(4-fluorophenyl)-6-oxo-1-phenyl-5-(3-(trifluoromethyl)benzamido)-4,5,6,7-tetrahydro-1H-pyrazolo[3,4-b]pyridin-3-yl)methyl)acrylate] | 1000 to 3000 | 1000 to 3000 | –
23 | CCN1C(=O)[C@@H](NC(=O)c2cccc(C(F)(F)F)c2)[C@@H](c2ccc(F)cc2)c2c(C(=O)NCCC#N)nn(-c3ccccc3)c21 (racemic) [Compound I-81, rac-(4R,5R)—N-(2-cyanoethyl)-7-ethyl-4-(4-fluorophenyl)-6-oxo-1-phenyl-5-(3-(trifluoromethyl)benzamido)-4,5,6,7-tetrahydro-1H-pyrazolo[3,4-b]pyridine-3-carboxamide] | 1000 to 3000 | 1000 to 3000 | –
24 | CCN1C(=O)[C@H](NC(=O)c2cccc(C(F)(F)F)c2)[C@H](c2ccc(F)cc2)c2c(CNC(=O)C3=CCN(C)C3)nn(-c3ccccc3)c21 (racemic) [Compound I-86, rac-N-(((4R,5R)-7-ethyl-4-(4-fluorophenyl)-6-oxo-1-phenyl-5-(3-(trifluoromethyl)benzamido)-4,5,6,7-tetrahydro-1H-pyrazolo[3,4-b]pyridin-3-yl)methyl)-1-methyl-2,5-dihydro-1H-pyrrole-3-carboxamide] | 200 to 1000 | 200 to 1000 | –
